From US20040024024A1, “Aromatic sulfone hydroxamates and their use as protease inhibitors” (priority 2001, published 2004)
pKi: −log10 of the molar value.

Assays:
Human recombinant MMP-2 = biological target: T1, Human recombinant MMP-2 (Homo sapiens, UniProt P08253); assay: In vitro MMP inhibition, Ki determination (fluorogenic substrate II); format: biochemical
T1 construct: made in house; host or cells: MMP-2-transfected p2AHT2 cells
T1 sequence (P08253 110-660): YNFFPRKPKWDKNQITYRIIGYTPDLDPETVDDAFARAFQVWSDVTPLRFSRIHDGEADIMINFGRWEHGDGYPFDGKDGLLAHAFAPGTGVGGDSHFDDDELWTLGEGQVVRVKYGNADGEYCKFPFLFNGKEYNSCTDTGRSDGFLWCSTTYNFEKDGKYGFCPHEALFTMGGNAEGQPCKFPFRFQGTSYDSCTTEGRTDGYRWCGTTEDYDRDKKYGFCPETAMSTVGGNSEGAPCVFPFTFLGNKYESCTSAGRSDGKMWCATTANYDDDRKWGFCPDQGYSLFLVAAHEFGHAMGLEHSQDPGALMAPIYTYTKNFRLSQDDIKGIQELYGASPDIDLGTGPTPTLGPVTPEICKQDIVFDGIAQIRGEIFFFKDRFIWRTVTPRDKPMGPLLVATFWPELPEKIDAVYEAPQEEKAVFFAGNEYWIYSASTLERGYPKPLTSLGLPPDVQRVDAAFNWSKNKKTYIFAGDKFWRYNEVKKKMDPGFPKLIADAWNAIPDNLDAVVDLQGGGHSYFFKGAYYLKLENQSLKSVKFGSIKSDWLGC
Method: (§1) Several hydroxamates and salts thereof were analyzed in in vitro assays to determine their ability to inhibit the MMP cleavage of peptide substrates. Inhibition (Ki) and IC50 constants were calculated from the assayed hydroxamate-MMP interactions.
(§2) Human recombinant MMP-1, MMP-2, MMP-9, MMP-13, and MMP-14 were used in this assay. All enzymes were prepared in Assignee's laboratories following usual laboratory procedures. Protocols for the preparation and use of these enzymes are available in the scientific literature. See, e.g., Enzyme Nomenclature (Academic Press, San Diego, Calif., 1992) (and the citations therein). See also, Frije et al., J. Biol. Chem., 26(24), 16766-73 (1994).
The MMP-2 proenzyme was purified by gelatin Sepharose chromatography from MMP-2-transfected p2AHT2 cells provided by Dr. Gregory Goldberg of Washington University (St. Louis, Mo.).
(§3) All MMPs were activated using 4-aminophenylmercuric acetate (“APMA”, Sigma Chemical, St. Louis, Mo.) or trypsin. MMP-9 also was activated using human recombinant MMP-3 (purified in Assignee's laboratory following standard cloning and purification techniques).
(§4) Two fluorogenic, methoxycoumarin-containing polypeptide substrates were used in the MMP inhibition assays:
(§5) MCA-ArgProLeuGlyLeuDpaAlaArgGluArgNH2 (II)
(§6) Here, “Dpa” is 3-(2,4-dinitrophenyl)-L-2,3-diaminopropionyl group, and “MCA” is 7-methoxycoumarin-4-yl acetyl. Substrate (I) was purchased from Baychem (Redwood City, Calif.), and substrate II was prepared Assignee's laboratory. Substrate I was used in the IC50 determination assays, while substrate II was used in the Ki determination assays. In the absence of MMP inhibitory activity, either substrate is cleaved at the Gly-Leu peptide bond. This cleavage separates the highly fluorogenic peptide from the 2,4-dinitrophenyl quencher, thus resulting in increase of fluorescent intensity.
(§7) The stock solutions of the assayed hydroxamates (or salts thereof) were prepared in 1% dimethyl sulfoxide (DMSO). These stock solutions were diluted in Buffer A (100 mM Tris-HCl, 100 mM NaCl, 10 mM CaCl2, 0.05% polyoxyethylene 23 lauryl ether, pH 7.5) to obtain solutions with different hydroxamate concentrations, i.e., assay solutions with different concentrations of the assayed MMP inhibitory compound. The experiment controls contained the same amount of Buffer A/DMSO as the assayed sample, but contained no hydroxamate (or salt thereof).
The assays from which the Ki determinations were made were performed as follows. The assayed hydroxamate samples were incubated in separate wells of untreated white polystyrene plates (Nunc Nalgene International, Rochester, N.Y.), and analyzed on a Tecan SpectraFlour Plus plate reader. The excitation wavelength was 330 nm, and the emission wavelength—420 nm. All samples (assayed hydroxamates and controls) were incubated in separate plate wells at room temperature for 1 hr in the presence of 4 μM of MMP substrate (II). In the absence of MMP inhibitory activity, substrate II was cleaved at the Gly-Leu bond resulting in an increase of relative fluorescence. Inhibition was observed as a reduced rate of this increase in relative fluorescence. The various hydroxamates were analyzed using a single low enzyme concentration with a single substrate concentration fixed at or below the Km. This protocol is a modification of method by Knight et al., FEBS Lett., 296(3), 263-266 (1992). Apparent inhibitory constants were determined by non-linear regression of reaction velocity as a function of inhibitor and enzyme concentration using Morrison's equation, as described by Kuzmic, Anal. Biochem. 286, 45-50 (2000). […] Since the substrate concentration was chosen to be at or below the Km, the apparent Ki's from this analysis were reported as Ki's without correction for the influence of substrate.

Human recombinant MMP-14 = biological target: T2, Human recombinant MMP-14 (Homo sapiens, UniProt P50281); assay: as above; format: biochemical
T2 construct: The catalytic domain enzyme was expressed in E. coli inclusion bodies, solubilized in urea; made in house
Method: as §1, §2
The MMP-14 full length cDNA was provided by Dr. Gregory Goldberg of Washington University (St. Louis, Mo.). The catalytic domain enzyme was expressed in E. coli inclusion bodies, solubilized in urea, purified on a preparative […] reverse phase HPLC column, and then refolded in the presence of zinc acetate and purified for use.
as §3, §4, §5, §6, §7
The assays from which the Ki determinations were made were performed as follows. The assayed hydroxamate samples were incubated in separate wells of untreated white polystyrene plates (Nunc Nalgene International, Rochester, N.Y.), and analyzed on a Tecan SpectraFlour Plus plate reader. The excitation wavelength was 330 nm, and the emission wavelength—420 nm. All samples (assayed hydroxamates and controls) were incubated in separate plate wells at room temperature for 1 hr in the presence of 4 μM of MMP substrate (II). In the absence of MMP inhibitory activity, substrate II was cleaved at the Gly-Leu bond resulting in an increase of relative fluorescence. Inhibition was observed as a reduced rate of this increase in relative fluorescence. The various hydroxamates were analyzed using a single low enzyme concentration with a single substrate concentration fixed at or below the Km. This protocol is a modification of method by Knight et al., FEBS Lett., 296(3), 263-266 (1992). Apparent inhibitory constants were determined by non-linear regression of reaction velocity as a function of inhibitor and enzyme concentration using Morrison's equation, as described by Kuzmic, Anal. Biochem. 286, 45-50 (2000). Modifications were made in the non-linear regression method to allow a common control reaction rate and effective enzyme concentration to be shared between all dose-response relationships on a given assay plate. […]

[1] = substrate (II) 4 μM, 1 hr room temperature, apparent Ki, values in parenthesis

Structure (SMILES) | pKi (Human recombinant MMP-2; value in parenthesis) | pKi (Human recombinant MMP-14; value in parenthesis) | pKi (Human recombinant MMP-2; value in parentheses) | pKi (Human recombinant MMP-14; value in parentheses) | also measured
O=C(NO)C1(S(=O)(=O)c2ccc(OCCCc3cccc(-c4ccccc4Cl)c3)cc2)CCOCC1 [Example 162] | 5.63 | < 5.00 |  |  | 
O=C(NO)C1(S(=O)(=O)c2ccc(OCCCc3cccc(-c4coc5ccccc45)c3)cc2)CCOCC1 [Example 634] |  |  | 6.01 | < 5.00 | 
O=C(NO)C1(S(=O)(=O)c2ccc(OCCCc3cncc(-c4ccc(F)cc4)c3)cc2)CCOCC1 [Example 523] |  |  | 6.71 | < 5.00 | 
NC(=O)c1cccc(OCCOc2ccc(S(=O)(=O)C3(C(=O)NO)CCOCC3)cc2)c1 [Example 54] |  |  |  |  | pKi (Human recombinant MMP-2; [1]): 7.19; pKi (Human recombinant MMP-14; [1]): 5.39
O=C(CCCOc1ccc(S(=O)(=O)C2(C(=O)NO)CCOCC2)cc1)Nc1cccc(OC(F)(F)F)c1 [Example 181] | 7.80 | 5.32 |  |  | 
O=C(NO)C1(S(=O)(=O)c2ccc(OCCCc3cccc(-c4ccc(F)cc4)c3)cc2)CCOCC1 [Example 39] |  |  |  |  | pKi (Human recombinant MMP-2; [1]): 5.79; pKi (Human recombinant MMP-14; [1]): < 5.00
O=C(NO)C1(S(=O)(=O)c2ccc(OCCc3cccc(-c4ccncc4)c3)cc2)CCOCC1 [Example 113] | 7.37 | 5.46 |  |  | 
O=C(NO)C1(S(=O)(=O)c2ccc(OCCCc3cccc(-c4ccsc4)c3)cc2)CCOCC1 [Example 632] |  |  | 6.55 | < 5.00 | 
O=C(CCCOc1ccc(S(=O)(=O)C2(C(=O)NO)CCOCC2)cc1)Nc1cccc(I)c1 [Example 570] |  |  | 8.00 | 5.87 | 
O=C(NO)C1(S(=O)(=O)c2ccc(OCCCc3cc(-c4ccc(F)cc4F)cs3)cc2)CCOCC1 [Example 587] |  |  | 6.90 | 5.38 | 
O=C(NO)C1(S(=O)(=O)c2ccc(OCCCc3cccc(-c4ccccn4)c3)cc2)CCOCC1 [Example 148] | 6.67 | 5.29 |  |  | 
COCCN1CCC(C(=O)NO)(S(=O)(=O)c2ccc(OCCCc3nc(-c4ccc(OC(F)(F)F)cc4)no3)cc2)CC1 [Example 190] | 6.55 | < 5.00 |  |  | 
O=C(NO)C1(S(=O)(=O)c2ccc(OCCCc3cccc(-c4ccccc4F)c3)cc2)CCOCC1 [Example 163] | 6.00 | < 5.00 |  |  | 
O=C(NO)C1(S(=O)(=O)c2ccc(OCCCc3cccc(-c4ccc(C(F)(F)F)cc4)c3)cc2)CCOCC1 [Example 625] |  |  | 5.16 | < 5.00 | 
O=C(NO)C1(S(=O)(=O)c2ccc(OCCCc3cccc(-c4ccco4)c3)cc2)CCOCC1 [Example 97] | 6.53 | < 5.00 |  |  | 
CC(C)C(=O)c1cccc(CCCOc2ccc(S(=O)(=O)C3(C(=O)NO)CCOCC3)cc2)c1 [Example 95] | 6.83 | 5.27 |  |  | 
Cc1cc(NC(=O)CCCOc2ccc(S(=O)(=O)C3(C(=O)NO)CCOCC3)cc2)ccc1OC(C)C [Example 290] | 6.00 | < 5.00 |  |  | 

The next lines start with results.

pKi (Human recombinant MMP-2; value in parenthesis) | pKi (Human recombinant MMP-14; value in parenthesis) | pKi (Human recombinant MMP-2; value in parentheses) | pKi (Human recombinant MMP-14; value in parentheses) | Structure (SMILES) | also measured
 |  | 6.30 | < 5.00 | Cc1ccc(-c2cccc(CCCOc3ccc(S(=O)(=O)C4(C(=O)NO)CCOCC4)cc3)c2)s1 [Example 639] | 
7.02 | < 5.00 |  |  | O=C1Nc2ccc(-c3noc(CCCOc4ccc(S(=O)(=O)C5(C(=O)NO)CCN(C6CC6)CC5)cc4)n3)cc21 [Example 142] | 
 |  | 6.95 | 5.27 | O=C(NO)C1(S(=O)(=O)c2ccc(OCCCc3cccc(-n4ccnc4)c3)cc2)CCOCC1 [Example 574] | 
 |  | 6.21 | 5.12 | N#Cc1ccc(-c2cccc(CCCOc3ccc(S(=O)(=O)C4(C(=O)NO)CCOCC4)cc3)c2)cc1 [Example 624] | 
< 5.00 | < 5.00 |  |  | Cc1ccc(-c2cccc(CCCOc3ccc(S(=O)(=O)C4(C(=O)NO)CCOCC4)cc3)c2)cc1C [Example 165] | 
 |  | 7.14 | < 5.00 | O=C(NO)C1(S(=O)(=O)c2ccc(OCCCc3nc(-c4cccnc4)no3)cc2)CCOCC1 [Example 578] | 
6.38 | < 5.00 |  |  | O=C(NO)C1(S(=O)(=O)c2ccc(OCCOc3cccc(-c4ccccc4)c3)cc2)CCOCC1 [Example 157] | 
7.22 | < 5.00 |  |  | COc1ccc(/C(C#N)=C/CCCOc2ccc(S(=O)(=O)C3(C(=O)NO)CCN(C4CC4)CC3)cc2)cc1 [Example 233] | 
 |  | 6.14 | < 5.00 | O=C(NO)C1(S(=O)(=O)c2ccc(OCCCc3cc(-c4ccc(OC(F)(F)F)cc4)cs3)cc2)CCOCC1 [Example 608] | 
8.51 | 5.77 |  |  | O=C(CCCOc1ccc(S(=O)(=O)C2(C(=O)NO)CCOCC2)cc1)Nc1ccc(OC(F)(F)F)cc1 [Example 250] | 
